Biological target: T1, SIRT1 (Homo sapiens, UniProt Q96EB6)
T1 sequence (Q96EB6 1-747): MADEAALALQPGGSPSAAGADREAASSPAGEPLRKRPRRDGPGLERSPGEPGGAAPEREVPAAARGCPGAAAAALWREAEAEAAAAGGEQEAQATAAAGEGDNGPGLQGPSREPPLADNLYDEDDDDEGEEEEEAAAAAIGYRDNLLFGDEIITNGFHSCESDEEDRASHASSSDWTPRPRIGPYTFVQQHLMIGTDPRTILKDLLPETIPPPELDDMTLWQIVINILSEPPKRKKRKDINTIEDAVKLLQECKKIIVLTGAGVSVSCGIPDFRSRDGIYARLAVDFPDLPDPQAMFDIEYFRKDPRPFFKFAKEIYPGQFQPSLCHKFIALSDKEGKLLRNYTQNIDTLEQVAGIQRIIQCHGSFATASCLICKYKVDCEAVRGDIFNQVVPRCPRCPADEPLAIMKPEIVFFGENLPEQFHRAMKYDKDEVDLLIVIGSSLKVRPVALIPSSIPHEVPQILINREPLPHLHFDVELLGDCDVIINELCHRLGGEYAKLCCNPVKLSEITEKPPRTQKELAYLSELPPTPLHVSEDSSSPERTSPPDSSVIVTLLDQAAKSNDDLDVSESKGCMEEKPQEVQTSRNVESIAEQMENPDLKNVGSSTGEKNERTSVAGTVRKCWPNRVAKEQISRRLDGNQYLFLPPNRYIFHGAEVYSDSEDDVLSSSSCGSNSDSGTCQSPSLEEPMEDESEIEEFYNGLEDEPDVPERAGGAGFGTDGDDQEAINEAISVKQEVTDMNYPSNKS
Assay: Trp mass spectrometry assay (SIRT1 activation)
Type: biochemical
Conditions: Trp peptide substrate; for Tryp AVG EC1.5 (μM): concentration of test compound that results in 150% activation of SIRT1; for Emax: percent maximum fold activation of SIRT1, read-out: Tryp % Fold Act
Summary of the method: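 N-His-tagged SIRT1 (10 nM), expressed in E. coli, was incubated with 0.5 μM Ac-RHKK(Ac)W-NH2 peptide and 120 μM NAD+ for 25 min at 25 °C in HEPES pH 7.5 with […]. The reaction was stopped with formic acid and O-acetyl-ADP-ribose or deacetylated peptide was quantified by mass spectrometry. Results are given as EC1.5 and percent maximal activation relative to DMSO control.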

Row | SMILES | Tryp AVG EC1.5 (μM) | Emax
1 | Cc1ccc(-c2ccc3c(n2)N(C(=O)Nc2ccc(F)cn2)[C@H]2CCN3C2)cn1 [Example 237] | B (EC1.5 1-25 μM) | ≥ 150%
2 | Cc1cc(-c2ccc3c(n2)N(C(=O)Nc2cncc(F)c2)[C@H]2CCN3C2)ccn1 [Example 238] | B (EC1.5 1-25 μM) | ≥ 150%
3 | O=C(Nc1cnccn1)N1c2nc(-c3cccc(N4CCC(F)(F)C4)c3)ccc2N2CC[C@H]1C2 [Example 239] | A (EC1.5<1 μM) | ≥ 150%
4 | COc1cc(NC(=O)N2c3nc(-c4ccnc(C)c4)ccc3N3CC[C@H]2C3)ncn1 [Example 240] | B (EC1.5 1-25 μM) | ≥ 150%
5 | CN(C)[C@H]1CCN(c2ccc3c(n2)N(C(=O)Nc2cccnc2)[C@H]2CCN3C2)C1 [Example 242] | B (EC1.5 1-25 μM) | ≥ 150%
6 | Cc1cncc(NC(=O)N2c3nc(N4CC[C@H](N(C)C)C4)ccc3N3CC[C@H]2C3)c1 [Example 243] | C (EC1.5>25 μM) | ≥ 150%
7 | CN(C)[C@H]1CCN(c2ccc3c(n2)N(C(=O)Nc2cncc(F)c2)[C@H]2CCN3C2)C1 [Example 244] | B (EC1.5 1-25 μM) | ≥ 150%
8 | Cc1cc(NC(=O)N2c3nc(N4CC[C@H](N(C)C)C4)ccc3N3CC[C@H]2C3)cc(C)n1 [Example 245] | B (EC1.5 1-25 μM) | ≥ 150%
9 | CN(C)[C@H]1CCN(c2ccc3c(n2)N(C(=O)Nc2cnccn2)[C@H]2CCN3C2)C1 [Example 246] | B (EC1.5 1-25 μM) | ≥ 150%
10 | CN(C)[C@H]1CCN(c2ccc3c(n2)N(C(=O)Nc2nccs2)[C@H]2CCN3C2)C1 [Example 247] | B (EC1.5 1-25 μM) | ≥ 150%
11 | O=C(Nc1ccncn1)N1c2nc(-c3cncc(Cl)c3)ccc2N2CC[C@H]1C2 [Example 249] | B (EC1.5 1-25 μM) | ≥ 150%
12 | COc1cc(NC(=O)N2c3nc(-c4cncc(Cl)c4)ccc3N3CC[C@H]2C3)ncn1 [Example 250] | A (EC1.5<1 μM) | ≥ 150%
13 | CN(C)c1cccc(-c2ccc3c(n2)N(C(=O)Nc2ccccn2)[C@@H]2CCCN3C2)c1 [Example 251] | C (EC1.5>25 μM) | ≥ 150%
14 | Cc1nc(NC(=O)N2c3nc(-c4cccc(N(C)C)c4)ccc3N3CCC[C@@H]2C3)sc1C [Example 252] | C (EC1.5>25 μM) | ≥ 150%
15 | CN(C)c1cccc(-c2ccc3c(n2)N(C(=O)Nc2ccc(F)cn2)[C@@H]2CCCN3C2)c1 [Example 253] | C (EC1.5>25 μM) | < 150%
16 | O=C(Nc1ccccn1)N1c2nc(-c3cccc(N4CCC(F)(F)C4)c3)ccc2N2CC[C@H]1C2 [Example 254] | A (EC1.5<1 μM) | ≥ 150%
17 | COc1cc(NC(=O)N2c3nc(-c4cccc(N5CC[C@H](F)C5)c4)ccc3N3CC[C@H]2C3)ncn1 [Example 255] | B (EC1.5 1-25 μM) | ≥ 150%
18 | COc1cc(NC(=O)N2c3nc(-c4cccc(N5CCC(F)(F)C5)c4)ccc3N3CC[C@H]2C3)ncn1 [Example 256] | B (EC1.5 1-25 μM) | ≥ 150%
19 | O=C(Nc1ccc(F)cn1)N1c2nc(-c3cccc(N4CCC(F)(F)C4)c3)ccc2N2CC[C@H]1C2 [Example 257] | B (EC1.5 1-25 μM) | ≥ 150%
20 | O=C(Nc1ccccn1)N1c2nc(Cl)ccc2N2CC[C@H]1C2 [Example 258] | C (EC1.5>25 μM) | ≥ 150%
21 | O=C(Nc1cncc(F)c1)N1c2nc(Cl)ccc2N2CC[C@H]1C2 [Example 259] | B (EC1.5 1-25 μM) | ≥ 150%
22 | O=C(Nc1ccccn1)N1c2nc(-c3cncc(Cl)c3)ccc2N2CC[C@H]1C2 [Example 260] | A (EC1.5<1 μM) | ≥ 150%
23 | O=C(Nc1ccc(F)cn1)N1c2nc(-c3cncc(Cl)c3)ccc2N2CC[C@H]1C2 [Example 261] | A (EC1.5<1 μM) | ≥ 150%
24 | O=C(Nc1ccccn1)N1c2nc(-c3ccc4c(c3)OC(F)(F)O4)ccc2N2CC[C@H]1C2 [Example 262] | B (EC1.5 1-25 μM) | ≥ 150%
25 | COc1ncc(-c2ccc3c(n2)N(C(=O)Nc2ccccn2)[C@H]2CCN3C2)c(OC)n1 [Example 263] | B (EC1.5 1-25 μM) | ≥ 150%

Row | SMILES | Tryp AVG EC1.5 (μM) | Emax
26 | CN(C)c1cccc(-c2ccc3c(n2)N(C(=O)Nc2cccc(-c4cnco4)c2)[C@@H]2CCCN3C2)c1 [Example 264] | A (EC1.5<1 μM) | ≥ 150%
27 | COc1cc(NC(=O)N2c3nc(-c4cccc(N(C)C)c4)ccc3N3CCC[C@@H]2C3)ncn1 [Example 265] | B (EC1.5 1-25 μM) | ≥ 150%
28 | CN(C)c1cccc(-c2ccc3c(n2)N(C(=O)Nc2cnccn2)[C@@H]2CCCN3C2)c1 [Example 266] | B (EC1.5 1-25 μM) | ≥ 150%
29 | O=C(Nc1cnccn1)N1c2nc(-c3cccc(N4CC[C@@H](F)C4)c3)ccc2N2CC[C@H]1C2 [Example 267] | B (EC1.5 1-25 μM) | ≥ 150%
30 | O=C(Nc1cnccn1)N1c2nc(-c3cccc(N4CC[C@H](F)C4)c3)ccc2N2CC[C@H]1C2 [Example 268] | A (EC1.5<1 μM) | ≥ 150%
31 | O=C(Nc1ccc(F)cn1)N1c2nc(-c3cccc(N4CC[C@@H](F)C4)c3)ccc2N2CC[C@H]1C2 [Example 269] | B (EC1.5 1-25 μM) | ≥ 150%
32 | O=C(Nc1ccc(F)cn1)N1c2nc(-c3cccc(N4CC[C@H](F)C4)c3)ccc2N2CC[C@H]1C2 [Example 270] | B (EC1.5 1-25 μM) | ≥ 150%
33 | O=C(Nc1cncc(F)c1)N1c2nc(-c3cccc(N4CCC(F)(F)C4)c3)ccc2N2CC[C@H]1C2 [Example 271] | A (EC1.5<1 μM) | ≥ 150%
34 | O=C(Nc1ccccn1)N1c2nc(-c3cccc(C(F)(F)F)c3)ccc2N2CCC[C@@H]1C2 [Example 272] | B (EC1.5 1-25 μM) | ≥ 150%
35 | O=C(Nc1cncc(F)c1)N1c2nc(-c3cccc(C(F)(F)F)c3)ccc2N2CCC[C@@H]1C2 [Example 273] | A (EC1.5<1 μM) | ≥ 150%
36 | COc1cc(NC(=O)N2c3nc(-c4cccc(C(F)(F)F)c4)ccc3N3CCC[C@@H]2C3)ncn1 [Example 274] | A (EC1.5<1 μM) | ≥ 150%
37 | O=C(Nc1cnccn1)N1c2nc(-c3cncc(Cl)c3)ccc2N2CC[C@H]1C2 [Example 275] | A (EC1.5<1 μM) | ≥ 150%
38 | O=C(Nc1ccncn1)N1c2nc(-c3cncc(C(F)(F)F)c3)ccc2N2CC[C@H]1C2 [Example 276] | A (EC1.5<1 μM) | ≥ 150%
39 | O=C(Nc1ccc(F)cn1)N1c2nc(-c3cncc(C(F)(F)F)c3)ccc2N2CC[C@H]1C2 [Example 277] | A (EC1.5<1 μM) | ≥ 150%
40 | O=C(Nc1cnccn1)N1c2nc(-c3cncc(C(F)(F)F)c3)ccc2N2CC[C@H]1C2 [Example 278] | A (EC1.5<1 μM) | ≥ 150%
41 | O=C(Nc1ccccn1)N1c2nc(-c3cccc(N4CC[C@@H](F)C4)c3)ccc2N2CC[C@H]1C2 [Example 279] | A (EC1.5<1 μM) | ≥ 150%
42 | O=C(Nc1ccccn1)N1c2nc(-c3cccc(N4CC[C@H](F)C4)c3)ccc2N2CC[C@H]1C2 [Example 280] | A (EC1.5<1 μM) | ≥ 150%
43 | COc1cc(NC(=O)N2c3nc(-c4cccc(N5CC[C@@H](F)C5)c4)ccc3N3CC[C@H]2C3)ncn1 [Example 281] | A (EC1.5<1 μM) | ≥ 150%
44 | O=C(Nc1cncc(F)c1)N1c2nc(-c3cccc(N4CC[C@@H](F)C4)c3)ccc2N2CC[C@H]1C2 [Example 282] | A (EC1.5<1 μM) | ≥ 150%
45 | O=C(Nc1cncc(F)c1)N1c2nc(-c3cccc(N4CC[C@H](F)C4)c3)ccc2N2CC[C@H]1C2 [Example 283] | A (EC1.5<1 μM) | ≥ 150%
46 | O=C(Nc1cnccn1)N1c2nc(-c3ccnc(F)c3)ccc2N2CC[C@H]1C2 [Example 284] | B (EC1.5 1-25 μM) | ≥ 150%
47 | O=C(Nc1cccc(-c2cnco2)c1)N1c2nc(N3CCCC(C(F)(F)F)C3)ccc2N2CCC[C@H]1C2 (some centres unmarked) [Example 285] | A (EC1.5<1 μM) | ≥ 150%
48 | O=C(Nc1ccccn1)N1c2nc(N3CCCC(C(F)(F)F)C3)ccc2N2CCC[C@H]1C2 (some centres unmarked) [Example 286] | A (EC1.5<1 μM) | ≥ 150%
49 | Cc1cc(C)nc(NC(=O)N2c3nc(N4CCCC(C(F)(F)F)C4)ccc3N3CCC[C@H]2C3)c1 (some centres unmarked) [Example 287] | B (EC1.5 1-25 μM) | ≥ 150%

From patent US9765075B2, “Substituted bridged urea analogs as sirtuin modulators” (GLAXOSMITHKLINE LLC, priority 2013, dated 2017)
